Source: patent publication US20140000886A1, “PETROLEUM RECOVERY PROCESS AND SYSTEM” (Shell Oil Company, priority 2012, published 2014)

Test: Oil recovery from formation core by brine displacement followed by DMS displacement
Conditions: after waterflooding with a brine solution
Description: Incremental recovery of oil from a formation core using an oil recovery formulation consisting of dimethyl sulfide following oil recovery from the core by water-flooding was measured to evaluate the effectiveness of DMS as a tertiary oil recovery agent.
Two 5.02 cm long Berea sandstone cores with a core diameter of 3.78 cm and a permeability between 925 and 1325 mD were saturated with a brine having a composition as set forth in Table 7.
After saturation of the cores with brine, the brine was displaced by a Middle Eastern Asphaltic crude oil having the characteristics as set forth above in Table 3 to saturate the cores with oil.
Oil was recovered from each oil saturated core by the addition of brine to the core under pressure and by subsequent addition of DMS to the core under pressure. Each core was treated as follows to determine the amount of oil recovered from the core by addition of brine followed by addition of DMS. Oil was initially displaced from the core by addition of brine to the core under pressure. A confining pressure of 1 MPa was applied to the core during addition of the brine, and the flow rate of brine to the core was set at 0.05 ml/min. The core was maintained at a temperature of 50° C. during displacement of oil from the core with brine. […]

**Q.** Which “Oil recovered, of the oil remaining in the core after the waterflood” value does the source give for `CSC` [Dimethyl Sulfide, dimethyl sulfide] here?
**A.** The value was “approximately 60%”.
